Key:
[1] = Tablet dissolution, 1.0% w/v CTAB in 190 mM acetate buffer pH 4.0, USP Type II, 75 rpm; type: physicochemical
[2] = Solid-state compatibility of sofosbuvir/velpatasvir SSD/voxilaprevir SSD granules (Table 7); type: physicochemical; details: for LS / Total Imp./Deg. Products: granules Lot F
Experimental: Sofosbuvir, velpatasvir SSD, and voxilaprevir SSD are chemically and physically compatible in the solid-state. The solid-state compatibility of sofosbuvir, velpatasvir SSD, and voxilaprevir SSD was evaluated by preparing a powder blend composed of 49.75% w/w sofosbuvir, 24.88% w/w of velpatasvir SSD, and 24.88% w/w of voxilaprevir SSD, and 0.25% w/w magnesium stearate (added as a lubricant). The powder blend was dry granulated using a roller compactor and then milled. The resulting granules (Lot F) contained 400 mg of sofosbuvir, 100 mg velpatasvir (as 200 mg velpatasvir SSD), and 100 mg voxilaprevir (as 200 mg voxilaprevir SSD) equivalent to the relative compositions in the sofosbuvir/velpatasvir/voxilaprevir tablet: 400/100/100 mg.
The chemical and physical stability of sofosbuvir/velpatasvir SSD/voxilaprevir SSD granules, packaged in glass vials (protected from light), was evaluated for 6 months at 25° C./60% RH and 40° C./75% RH under open and closed conditions. As summarized in Table 7, sofosbuvir, velpatasvir, and voxilaprevir were chemically stable with no increase in total impurities/degradation products of sofosbuvir (remaining at 0.0%), velpatasvir (remaining between 0.4 and 0.5%), and voxilaprevir (remaining between 1.1 and 1.4%) after a 6 month storage period. No upward trend in the content of degradation products was observed over the time period studied.

[3] = Tablet dissolution, 50 mM sodium acetate buffer pH 5.0 with 2.0% w/v Polysorbate 80, USP Type II, 75 rpm; type: physicochemical
Experimental: FIGS. 10-12 depict additional dissolution profiles for the sofosbuvir/velpatasvir SSD/voxilaprevir SSD tablets having the formulation described in Table 13 and which were used in phase 1, 2, and 3 clinical studies, where the dissolution testing was conducted at pH 5.0 acetate buffer containing 2.0% w/v polysorbate 80. Four batches of the sofosbuvir/velpatasvir SSD/voxilaprevir SSD tablets were tested, with Batch A manufactured at 100 kg and Batches B, C and D manufactured at 145 kg. All other aspects of the formulation and manufacturing process were otherwise equivalent. […] Moreover, for Batch A, the amount dissolved at 30 min remained between 98 and 100% for sofosbuvir, between 90 and 92% for velpatasvir SSD, and between 89 and 93% for voxilaprevir SSD. […] For Batch D, the amount dissolved at 30 min remained at 100% for sofosbuvir, between 90 and 91% for velpatasvir SSD, and between 89 and 91% for voxilaprevir SSD. Release of velpatasvir SSD and voxilaprevir SSD from the sofosbuvir/velpatasvir SSD/voxilaprevir SSD tablets associated with all four Batches was complete after 60 minutes.

[4] = Food effect (high calorie/high-fat meals) on pharmacokinetics in human subjects (Table 28); type: in vivo; details: tablets 400/100/100 mg; high calorie/high-fat meal
Experimental: The effect of food (high calorie/high-fat meals) on the pharmacokinetics of sofosbuvir/velpatasvir SSD/voxilaprevir SSD tablets (400/100/100 mg). […] As a result, sofosbuvir/velpatasvir SSD/voxilaprevir SSD tablets are administered with food.

[5] = 25° C./60% RH (Closed), 3 months
[6] = 25° C./60% RH (Closed), 6 months
[7] = 40° C./75% RH (Closed), 1 month
[8] = 40° C./75% RH (Closed), 3 months
[9] = 40° C./75% RH (Closed), 6 months

Question: Which “Dissolved at 30 min” value ([1]; Lot A (14 ct), 25° C./60% RH Closed, 1 month) does the source give for `CC(C)OC(=O)C(C)N[P@](=O)(OC[C@H]1O[C@@H](n2ccc(=O)[nH]c2=O)[C@](C)(F)[C@@H]1O)Oc1ccccc1` (stereo in doubt) [sofosbuvir, (S)-isopropyl 2-(((S)-(((2R,3R,4R,5R)-5-(2,4-dioxo-3,4-dihydropyrimidin-1(2H)-yl)-4-fluoro-3-hydroxy-4-methyltetrahydrofuran-2-yl)methoxy)(phenoxy)phosphoryl)amino)propanoate] here?
Answer: The value was 98%.

Question: What about the “Dissolved at 30 min” value ([1]; Lot A (14 ct), 25° C./60% RH Closed, 3 months) of the same compound?
Answer: The value was 103%.

Question: And the “Dissolved at 30 min” value ([1]; Lot A (14 ct), 25° C./60% RH Closed, 6 months)?
Answer: The value was 103%.

Question: And the “Dissolved at 30 min” value ([1]; Lot A (14 ct), 40° C./75% RH Closed, 1 month)?
Answer: The value was 100%.

Question: And the “Dissolved at 30 min” value ([1]; Lot A (14 ct), 40° C./75% RH Closed, 3 months)?
Answer: Its value is 100%.

Question: What about the “Dissolved at 30 min” value ([1]; Lot A (14 ct), 40° C./75% RH Closed, 6 months) of the same compound?
Answer: Its value is 100%.

Question: What about the “Dissolved at 30 min” value ([1]; Lot A (14 ct), 40° C./75% RH Open, 1 month) of the same compound?
Answer: Its value is 98%.

Question: And the “Dissolved at 30 min” value ([1]; Lot A (14 ct), 40° C./75% RH Open, 3 months)?
Answer: The value was 101%.

Question: And the “Dissolved at 30 min” value ([1]; Lot A (14 ct), 40° C./75% RH Open, 6 months)?
Answer: The value was 100%.

Question: And the “Dissolved at 30 min” value ([1]; Lot A (14 ct), Initial)?
Answer: The value was 103%.

Question: What about the “Dissolved at 30 min” value ([1]; Lot B (28 ct), 25° C./60% RH Closed, 1 month) of the same compound?
Answer: Its value is 102%.

Question: And the “Dissolved at 30 min” value ([1]; Lot B (28 ct), 25° C./60% RH Closed, 3 months)?
Answer: The value was 100%.

Question: What about the “Dissolved at 30 min” value ([1]; Lot B (28 ct), 25° C./60% RH Closed, 6 months) of the same compound?
Answer: The value was 102%.

Question: And the “Dissolved at 30 min” value ([1]; Lot B (28 ct), 40° C./75% RH Closed, 1 month)?
Answer: Its value is 97%.

Question: What about the “Dissolved at 30 min” value ([1]; Lot B (28 ct), 40° C./75% RH Closed, 3 months) of the same compound?
Answer: Its value is 99%.

Question: What about the “Dissolved at 30 min” value ([1]; Lot B (28 ct), 40° C./75% RH Closed, 6 months) of the same compound?
Answer: Its value is 99%.

Question: What about the “Dissolved at 30 min” value ([1]; Lot B (28 ct), Initial) of the same compound?
Answer: Its value is 103%.

Question: And the LS [2, 5]?
Answer: Its LS is 101.1%.

Question: What about the “Total Imp./Deg. Products” value [2, 5] of the same compound?
Answer: The value was 0.0%.

Question: And the LS [2, 6]?
Answer: The LS was 99.1%.

Question: What about the “Total Imp./Deg. Products” value [2, 6] of the same compound?
Answer: The value was 0.0%.

Question: What about the LS [2, 7] of the same compound?
Answer: Its LS is 99.5%.

Question: And the “Total Imp./Deg. Products” value [2, 7]?
Answer: The value was 0.0%.

Question: And the LS [2, 8]?
Answer: Its LS is 99.4%.

Question: And the “Total Imp./Deg. Products” value [2, 8]?
Answer: The value was 0.0%.

Question: And the LS [2, 9]?
Answer: The LS was 97.2%.

Question: And the “Total Imp./Deg. Products” value [2, 9]?
Answer: The value was 0.0%.

Question: What about the LS ([2]; 40° C./75% RH (Open), 1 month) of the same compound?
Answer: The LS was 101.3%.

Question: What about the “Total Imp./Deg. Products” value ([2]; 40° C./75% RH (Open), 1 month) of the same compound?
Answer: Its value is 0.0%.

Question: And the LS ([2]; 40° C./75% RH (Open), 3 months)?
Answer: The LS was 98.5%.

Question: And the “Total Imp./Deg. Products” value ([2]; 40° C./75% RH (Open), 3 months)?
Answer: The value was 0.0%.

Question: What about the LS ([2]; 40° C./75% RH (Open), 6 months) of the same compound?
Answer: The LS was 95.6%.

Question: And the “Total Imp./Deg. Products” value ([2]; 40° C./75% RH (Open), 6 months)?
Answer: Its value is 0.0%.

Question: What about the LS ([2]; Initial, 0 months) of the same compound?
Answer: Its LS is 103.5%.

Question: And the “Total Imp./Deg. Products” value ([2]; Initial, 0 months)?
Answer: The value was 0.0%.

Question: And the total impurities/degradation products ([2]; granules, over 6 month storage at 25° C./60% RH and 40° C./75% RH, open and closed)?
Answer: Its total impurities/degradation products is 0.0%.

Question: What about the “Dissolved at 30 min” value ([3]; Batch A, 25° C./60% RH, 3 months) of the same compound?
Answer: Its value is 98%.

Question: What about the “Dissolved at 30 min” value ([3]; Batch A, 25° C./60% RH, 6 months) of the same compound?
Answer: Its value is 98%.

Question: And the “Dissolved at 30 min” value ([3]; Batch A, 30° C./75% RH, 3 months)?
Answer: Its value is 98%.

Question: And the “Dissolved at 30 min” value ([3]; Batch A, 30° C./75% RH, 6 months)?
Answer: Its value is 100%.

Question: And the “Dissolved at 30 min” value ([3]; Batch A, 40° C./75% RH, 1 month)?
Answer: Its value is 98%.

Question: And the “Dissolved at 30 min” value ([3]; Batch A, 40° C./75% RH, 3 months)?
Answer: Its value is 99%.

Question: What about the “Dissolved at 30 min” value ([3]; Batch A, 40° C./75% RH, 6 months) of the same compound?
Answer: The value was 100%.

Question: And the “Dissolved at 30 min” value ([3]; Batch A, Initial)?
Answer: The value was 98%.

Question: And the “Dissolved at 30 min” value ([3]; Batch B, 25° C./60% RH, 3 months)?
Answer: The value was 99%.

Question: What about the “Dissolved at 30 min” value ([3]; Batch B, 25° C./60% RH, 6 months) of the same compound?
Answer: The value was 99%.

Question: And the “Dissolved at 30 min” value ([3]; Batch B, 30° C./75% RH, 3 months)?
Answer: Its value is 99%.

Question: And the “Dissolved at 30 min” value ([3]; Batch B, 30° C./75% RH, 6 months)?
Answer: The value was 99%.

Question: What about the “Dissolved at 30 min” value ([3]; Batch B, 40° C./75% RH, 1 month) of the same compound?
Answer: Its value is 100%.

Question: What about the “Dissolved at 30 min” value ([3]; Batch B, 40° C./75% RH, 3 months) of the same compound?
Answer: The value was 100%.

Question: And the “Dissolved at 30 min” value ([3]; Batch B, 40° C./75% RH, 6 months)?
Answer: Its value is 98%.

Question: And the “Dissolved at 30 min” value ([3]; Batch B, Initial)?
Answer: The value was 99%.

Question: What about the “amount dissolved at 30 min” value ([3]; Batch D) of the same compound?
Answer: Its value is 100%.

Question: What about the “Dissolved at 30 min” value ([3]; Batch D, 40° C./75% RH, 1 month) of the same compound?
Answer: Its value is 100%.

Question: What about the “Dissolved at 30 min” value ([3]; Batch D, Initial) of the same compound?
Answer: Its value is 100%.

Question: And the “dissolution at 30 minutes” value ([3]; potency study Lot B, after 4 weeks open at 40° C./75% RH)?
Answer: Its value is 100%.

Question: And the “release at 30 minutes” value ([3]; tablet Lots A and B with different sofosbuvir particle size)?
Answer: The value was 101%.

Question: What about the “Dissolved at 30 min (%)” value ([3]; tablets Batch C, 1 g desiccant, 25° C./60% RH, 3 months) of the same compound?
Answer: Its value is 101%.

Question: What about the “Dissolved at 30 min (%)” value ([3]; tablets Batch C, 1 g desiccant, 25° C./60% RH, 6 months) of the same compound?
Answer: The value was 99%.

Question: And the “Dissolved at 30 min (%)” value ([3]; tablets Batch C, 1 g desiccant, 30° C./75% RH, 3 months)?
Answer: The value was 99%.

Question: And the “Dissolved at 30 min (%)” value ([3]; tablets Batch C, 1 g desiccant, 30° C./75% RH, 6 months)?
Answer: The value was 99%.

Question: What about the “Dissolved at 30 min (%)” value ([3]; tablets Batch C, 1 g desiccant, 40° C./75% RH, 1 month) of the same compound?
Answer: Its value is 100%.

Question: What about the “Dissolved at 30 min (%)” value ([3]; tablets Batch C, 1 g desiccant, 40° C./75% RH, 3 months) of the same compound?
Answer: The value was 100%.

Question: What about the “Dissolved at 30 min (%)” value ([3]; tablets Batch C, 1 g desiccant, 40° C./75% RH, 6 months) of the same compound?
Answer: Its value is 99%.

Question: And the “Dissolved at 30 min (%)” value ([3]; tablets Batch C, 1 g desiccant, Initial, time 0)?
Answer: The value was 99%.

Question: And the “Dissolved at 30 min (%)” value ([3]; tablets from VEL SSD 7.0% water, VOX SSD 3.2% water, Initial, time 0)?
Answer: Its value is 100%.

Question: And the “effect of food on plasma exposure” value [4]?
Answer: Its value is “does not substantially alter”.
